Read-outs that look alike come from different tables or passages of the source.
Assays:
[1] = 3 mg/kg oral
[2] = Brain levels of L-DOPA and its derivatives in rats treated with L-DOPA plus benserazide; assay type: in vivo, rat; conditions: 3 mg/kg oral
liver COMT = conditions: rat, 3 mg/kg oral; for inhibition of liver COMT activity nine hours after administration: 9 h
Experimental: Livers from 60 day old male Wistar rats weighing 240-260 g (Harlan-Interfauna Ibérica, Barcelona, Spain), kept two per cage under controlled environmental conditions (12 h light/dark cycle and room temperature 24° C.) were used in all experiments. After decapitation, the organs were immediately removed and homogenised in 5 mM phosphate buffer of pH 7.8. COMT activity was evaluated by the ability to methylate adrenaline to metanephrine. […] The preincubation and incubation were carried out at 37° C. under conditions of light protection with continuous shaking and without oxygenation.
In experiments designed to evaluate the oral bioavailability of test substances, compounds were given by gastric tube to overnight fasted rats. Thereafter, at defined intervals, animals were killed by decapitation and livers removed and used to determine COMT activity as described above. At the end of the incubation period (5 min) the tubes were transferred to ice and the reaction was stopped by the addition of 200 μl of 2 M perchloric acid. The samples were then centrifuged (200×g, 4 min, 4° C.), and 500 μl aliquots of the supernatant, filtered on 0.22 μm pore size Spin-X filter tubes (Costar) were used for the assay of metanephrine. The assay of metanephrine was carried out by means of high pressure liquid chromatography with electrochemical detection. The lower limits for detection of metanephrine ranged from 350 to 500 fmol (0.5 to 1.0 μmol/mg protein/h).

[3] = L-DOPA 12 mg/kg plus benserazide 3 mg/kg, all pre-treatment times (1, 7 and 24 h)
[4] = L-DOPA plus benserazide, inhibitor given 24 h in advance

## Cc1c(Cl)c(C)[n+]([O-])c(Cl)c1-c1noc(-c2cc(O)c(O)c([N+](=O)[O-])c2)n1 [Compound A, 5-[3-(2,5-dichloro-4,6-dimethyl-1-oxy-pyridin-3-yl)-[1,2,4]oxadiazol-5-yl]-3-nitrobenzene-1,2-diol]
[1]; [3]
  circulating (plasma) 3-O-methyl-L-DOPA: marked decrease
  plasma L-DOPA: significant increases
[2]; [3]
  brain 3-O-methyl-L-DOPA: marked decrease
  brain DOPAC: significant increases
  brain L-DOPA: significant increases
  brain dopamine: significant increases
Liver COMT
  time to maximal inhibitory effect on liver COMT: ≤ 60 min
  inhibition of liver COMT activity nine hours after administration: 90 % of control levels
  inhibition of liver COMT activity 24 hours after administration: 60 % of controls levels

## Cc1ccc(C(=O)c2cc(O)c(O)c([N+](=O)[O-])c2)cc1 [tolcapone, 3,4-dihydroxy-4′-methyl-5-nitrobenzophenone]
[1]; [4]
  plasma 3-O-methyl-L-DOPA: not affected
  plasma L-DOPA: not affected
[2]; L-DOPA plus benserazide, 2 and 7 h after administration
  brain L-DOPA: Significant changes
[2]; [4]
  brain 3-O-methyl-L-DOPA: not affected
  brain DOPAC: not affected
  brain L-DOPA: not affected
  brain dopamine: not affected
Liver COMT
  time to maximal inhibitory effect on liver COMT: ≤ 30 min
  inhibition of liver COMT activity nine hours after administration: minimal inhibitory effects
  inhibition of liver COMT activity 24 hours after administration: almost devoid of COMT inhibitory properties
